Four compounds from patent publication US11413278B2, “Compounds and methods for promoting stress resistance” (priority 2015, dated 2022) can be followed below.

The structures appear in SMILES notation. Entries after “also recorded” stand apart in the source; their conditions may differ. Like-named read-outs stand apart in the source and are kept apart here.

In assay [1] the test system is WI-38 cells. Nature of the assay: MMS resistance assay. Conditions: for fold induction at 10 µM: Homo sapiens, 12 h, normalized ATP measurement; for Assay 3: MMS-resistant / Assay 5: Triple resistant: YES/NO; for Assay 3: MMS-resistant: * indicates partial; for Assay 5: Triple resistant: H2O2, cadmium and MMS. It counts as cell-based, human. A digest of the protocol: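 Resistance to CdCl2 or MMS stress (12 h exposure) was scored in WI-38 fibroblasts pretreated with compound at 0.25–20 μM final, five doses, technical triplicates. MMS plates had compound added 24 h before MMS, after a shift to serum-free DMEM+2% BSA. Significance came from a global variance t-test over two independent runs.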

Assay [2] deals with FOXO3. Nature of the assay: qPCR analysis of FOXO3-regulated genes. It counts as cell-based, human. The settings on record: for fold induction at 10 µM: Homo sapiens; for K = Sestrin induction: score; for Induction of at least two of five FOXO3-regulated genes (SOD2, GADD45A, CAT, DDB1, TXNIP): WI-38. The procedure, abridged: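 FOXO3 target-gene expression quantified by qPCR normalised to B2M, PPIA and GAPDH, in WI-38 cells after 24 h exposure to 10 μM compound. Some runs used cells first transfected 36 h with 10 nM FOXO3 or NRF2 siRNA and replated ~24 h before dosing.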

For assay [3], the system named is C. elegans. In kind it is in vivo, Caenorhabditis elegans. The method, then: The worms were treated with the small molecules in liquid, with H2O2 (500 μM final concentration) added on day 4 of adulthood, and scored for viability everyday
FUdR was used to block progeny production. The molecules were analyzed in 96-well plates, with 4 wells for each small molecule. Multiple control wells with DMSO (0.2% final concentration) were included. […] Day 1 adults were transferred onto mini-plates, seeded with OP50 bacteria (UV-irradiated, kanamycin-treated) and supplemented with small molecules (˜60 μM final concentration, 0.2% DMSO). Worms were scored every other day. Cumulative survival was analyzed using the STATA software (log-rank test). […] The worms were treated with the small molecules in liquid, with H2O2 (500 μM final concentration) added on day 4 of adulthood, and scored for viability every day.

Where [4] appears, read: Exp. 1, WI-38 cells, read-out: Exp. 1, under MMS stress treatment, at 10 uM (fold change).
[5] abbreviates: Exp. 2, WI-38 cells, read-out: Exp. 2, under MMS stress treatment, at 10 uM (fold change).
[6] abbreviates: score in summary of 38 core set hits.
Where [7] appears, read: 24 h, Assay 10(m), at 10 uM, qPCR, read-out: Induction of FOXO3-regulated genes: DDB1 normalized fold-change.
Where [8] appears, read: 10 μM, 24 hrs, WI-38 cells, qPCR, normalized to B2M, n = 4, read-out: CAT expression, normalized fold change (FOXO3-regulated gene).
[9] abbreviates: WI-38 cells, 10 μM, 24 hrs, n=4, qPCR normalized by B2M, read-out: DDB1 Normalized fold change.
The mark [10] stands for this setting: WI-38 cells, 10 μM, 24 hrs, n=4, qPCR normalized by B2M, read-out: GADD45A Normalized fold change.
[11] abbreviates: WI-38 cells, 10 μM, 24 hrs, n=4, qPCR normalized by B2M, read-out: SESN1 Normalized fold change.
[12] abbreviates: fold change, qPCR, WI-38 cells, 10 μM, 24 hrs, read-out: Summary of effects on FOXO3-regulated genes: CAT.
The mark [13] stands for this setting: qPCR, WI-38 cells, 10 μM, n=4, 24 hrs, normalized by B2M, read-out: CAT Normalized fold change.
The mark [14] stands for this setting: qPCR, WI-38 cells, 10 μM, n=4, 24 hrs, normalized by B2M, read-out: SOD2 Normalized fold change.
Where [15] appears, read: qPCR, WI-38 cells, 10 μM, n=4, 24 hrs, normalized by B2M, read-out: TXNIP Normalized fold change.
[16] abbreviates: 24 h, Assay 10(m), at 10 uM, qPCR, read-out: Induction of FOXO3-regulated genes: CAT normalized fold-change.
[17] abbreviates: 10 μM, 24 hrs, WI-38 cells, qPCR, normalized to B2M, n = 4, read-out: DDB1 expression, normalized fold change (FOXO3-regulated gene).
The mark [18] stands for this setting: fold change, qPCR, WI-38 cells, 10 μM, 24 hrs, read-out: Summary of effects on FOXO3-regulated genes: DDB1.

Regarding `Nc1ccccc1S(=O)(=O)Nc1cccc2cccnc12` [Gr-3C], the fold induction at 10 µM in assay [1] (setting [4]) is 1.06; in assay [1] (setting [5]), 0.84; in assay [2] (setting [7]), 0.79; in assay [2] (setting [8]), 0.87; in assay [2] (setting [9]), 0.985; in assay [2] (setting [10]), 1.16. Besides, the fold induction at 10 µM in assay [2] (setting [11]) turned out to be 1.09; in assay [2] (setting [12]), 0.87; in assay [2] (setting [13]) it was 0.868; in assay [2] (setting [14]), 1.2; in assay [2] (setting [15]), 1.03. In addition, the “B = MMS resistant” value in assay [1] (setting [6]) and in assay [1] (summary score) was 0 throughout. Further, in assay [1] (summary score), the “D = Triple resistant” value came out at 0. Besides, the “E = Potential FOXO3 Activation” value in assay [2] (2-point score) and in assay [2] (summary score) was 0 throughout. Further, the “K = Sestrin induction” value in assay [2] is given as 0. Moreover, in assay [3] (in vivo), the “L = H2O2-resistance in worms” value is 0. For the same compound, the “N = H2O2-resistance in woms” value in assay [3] (in vivo) was 0.

For `COc1ccc(C(=O)/C=C/c2ccc(F)cc2)c(OC)c1` [Gr-4A], the fold induction at 10 µM in assay [1] (setting [4]) came out at 0.95; in assay [1] (setting [5]), 1.52; in assay [2] (setting [16]) it was 1.26; in assay [2] (setting [7]), 1.2; in assay [2] (setting [8]), 1.26; in assay [2] (setting [17]), 1.2. The fold induction at 10 µM in assay [2] (setting [9]) was determined as 1.2; in assay [2] (setting [10]) it was 0.981; in assay [2] (setting [11]) it was 1.12; in assay [2] (setting [12]) it was 1.26; in assay [2] (setting [18]), 1.2; in assay [2] (setting [13]), 1.26. Further, the fold induction at 10 µM in assay [2] (setting [14]) worked out at 0.98; in assay [2] (setting [15]), 0.819. Besides, the “B = MMS resistant” value in assay [1] (setting [6]) and in assay [1] (summary score) was 0 throughout. Also, in assay [1] (summary score), the “D = Triple resistant” value was determined as 0. For the same compound, the “Induction of at least two of five FOXO3-regulated genes (SOD2, GADD45A, CAT, DDB1, TXNIP)” value in assay [2] (10 μM, 24 hrs) was “significant induction; also recorded: significant, induction”. Also, the “E = Potential FOXO3 Activation” value in assay [2] (2-point score) and in assay [2] (summary score) was 0 in each case. Further, the “K = Sestrin induction” value in assay [2] stood at 0. Further, the “N = H2O2-resistance in woms” value in assay [3] (score) was determined as 0. Further, the “L = H2O2-resistance in worms” value in assay [3] (summary score) was 0.

`COc1ccc(C(=O)/C=C/c2ccccc2Br)c(OC)c1` [Gr-4B]: the fold induction at 10 µM stood at 1.22 in assay [1] (setting [4]); 1.54 in assay [1] (setting [5]); 1.06 in assay [2] (setting [9]); 0.61 in assay [2] (setting [10]); 0.992 in assay [2] (setting [11]); 1.18 in assay [2] (setting [13]). The fold induction at 10 µM worked out at 1.04 in assay [2] (setting [14]) and 0.792 in assay [2] (setting [15]). Also, in assay [1], the “Assay 3: MMS-resistant” value is “YES”. For the same compound, the “Assay 5: Triple resistant” value in assay [1] is “YES”. Moreover, the “B = MMS resistant” value in assay [1] (setting [6]) was 0; in assay [1] (summary score), 1. The “D = Triple resistant” value in assay [1] (summary score) was determined as 2. Also, the “E = Potential FOXO3 Activation” value in assay [2] (2-point score) and in assay [2] (summary score) was 0 each time. For the same compound, the “K = Sestrin induction” value in assay [2] is given as 0. Also, the “N = H2O2-resistance in woms” value in assay [3] (score) came to 0. In assay [3] (summary score), the “L = H2O2-resistance in worms” value came out at 0.

For `COc1ccc(C(=O)/C=C/c2cccc(Cl)c2)c(OC)c1` [Gr-4C], the fold induction at 10 µM in assay [1] (setting [4]) was 1.24; in assay [1] (setting [5]) it was 1.61; in assay [2] (setting [16]), 1.19; in assay [2] (setting [7]) it was 1.51; in assay [2] (24 h, Assay 10(m), at 10 uM, qPCR, read-out: Induction of FOXO3-regulated genes: GADD45A normalized fold-change) it was 1.23; in assay [2] (24 h, Assay 10(m), at 10 uM, qPCR, read-out: Induction of FOXO3-regulated genes: SESN1 normalized fold-change), 1.42. Also, the fold induction at 10 µM is 0.18 in assay [2] (24 h, Assay 10(m), at 10 uM, qPCR, read-out: Induction of FOXO3-regulated genes: TXNIP normalized fold-change); 1.19 in assay [2] (setting [8]); 1.51 in assay [2] (setting [17]); 1.23 in assay [2] (10 μM, 24 hrs, WI-38 cells, qPCR, normalized to B2M, n = 4, read-out: GADD45A expression, normalized fold change (FOXO3-regulated gene)); 1.42 in assay [2] (10 μM, 24 hrs, WI-38 cells, qPCR, normalized to B2M, n = 4, read-out: SESN1 expression, normalized fold change (FOXO3-regulated gene)); 0.18 in assay [2] (10 μM, 24 hrs, WI-38 cells, qPCR, normalized to B2M, n = 4, read-out: TXNIP expression, normalized fold change (FOXO3-regulated gene)). Further, the fold induction at 10 µM was found to be 1.51 in assay [2] (setting [9]); 1.23 in assay [2] (setting [10]); 1.42 in assay [2] (setting [11]); 1.19 in assay [2] (setting [12]); 1.51 in assay [2] (setting [18]); 1.23 in assay [2] (fold change, qPCR, WI-38 cells, 10 μM, 24 hrs, read-out: Summary of effects on FOXO3-regulated genes: GADD45A). Moreover, the fold induction at 10 µM in assay [2] (fold change, qPCR, WI-38 cells, 10 μM, 24 hrs, read-out: Summary of effects on FOXO3-regulated genes: SESN1) was 1.42; in assay [2] (fold change, qPCR, WI-38 cells, 10 μM, 24 hrs, read-out: Summary of effects on FOXO3-regulated genes: TXNIP), 0.18; in assay [2] (setting [13]), 1.19; in assay [2] (setting [14]) it was 1.04; in assay [2] (setting [15]), 0.179. Further, the “Assay 3: MMS-resistant” value in assay [1] is reported as “YES”. Further, in assay [1], the “Assay 5: Triple resistant” value is on record as “YES”. Also, the “B = MMS resistant” value in assay [1] (setting [6]) is given as 0; in assay [1] (summary score) it was 1. For the same compound, in assay [1] (summary score), the “D = Triple resistant” value was determined as 2. In addition, the “Induction of at least two of five FOXO3-regulated genes (SOD2, GADD45A, CAT, DDB1, TXNIP)” value in assay [2] (10 μM, 24 hrs) is “significant induction; also recorded: significant, induction”. Besides, the “E = Potential FOXO3 Activation” value in assay [2] (2-point score) and in assay [2] (summary score) was 0 throughout. For the same compound, the “K = Sestrin induction” value in assay [2] came out at 0. Also, the “N = H2O2-resistance in woms” value in assay [3] (score) is given as 0. Also, in assay [3] (summary score), the “L = H2O2-resistance in worms” value is recorded as 0.
